Source: patent US6979687B1, “Theophylline-based soluble guanylyl cyclase activators KMUP-1 analogues enhanced cyclic GMP and K+ channel activities on rabbit corpus cavernosum smooth muscle and intercavernous pressure activities” (Cho-Jan Liang, priority 2002, dated 2005)
Like-named read-outs stand apart in the source and are kept apart here.

Assays:
[1] = tested on: rabbit corpus cavernosum smooth muscle; test: Rabbit corpus cavernosum smooth muscle relaxation, organ bath; type: cell-based
Text: (§1) Disruption of endothelium The endothelium lining the lacunar spaces of rabbit corpus cavernosum was disrupted and/or removed by detergent treatment using a modification of a protocol for blood vessels, described elsewhere (kim N. et al., J. Clin. Invest., 88, 112–118, 1991). The intact, isolated penis was placed in a tray containing chilled physiological salt solution (PSS). A 21-guage minicatheter was inserted into each corporal body at the proximal end of the penis. A third minicatheter was inserted into the distal end, below the glans penis, where the right and left corpora communicate. While the distal and one proximal minicatheter were clamped, 3 ml of CHAPS (wt vol.^−) in saline was infused into the remaining proximal catheter. After a short interval (˜20 s), the clamped minicatheters were opened and the preparation was washed by infusion of saline. The corpora cavernosa were then removed and tested for endothelial integrity.
Tissue procurement and organ bath experiments Male rabbits were killed with pentobarbital and their penises excised rapidly and cut longitudinally into equal strips to give 3–6 segments. These segments were incubated in Kerbs-bicarbontate solution (NaCl, 118 mM; NaHCO3, 25 mM; KCl, 4.7 mM; KH2PO4, 1.2 mM; MgSO4, 1.2 mM; glucose, 11 mM; CaCl2, 2.5 mM; pH 7.3–7.4) maintained at 37° C. and aerated with 95% O2 and 5% CO2. Isometric tension was recorded with a force displacement transducer (UGO BASILE, Model 7004, Italy). Rabbit corpus cavernosum smooth muscles were stretched to a resting tension of 2 g and then contracted with phenylephrine (PE, 10 μM). Tissues were also treated with guanethidine (10 μM) to block contractions caused by noradrenaline, released from adrenergic neuron, and treated with atropine (1 μM) to prevent muscarinic effects caused by acetylcholine. When the stable constriction to phenylephrine was reached, concentration-response curves to KMUP-1 (0.001–10 μM) were constructed. Data were expressed as a percentage of the maximum contractile response to phenylephrine. To examine the possible action mechanisms of KMUP-1, the rabbit corpus cavernosum smooth muscles were pretreated with sGC (soluble guanylyl cyclase) inhibitors ODQ (1 μM), a NOS (nitric oxide synthase) inhibitor L-NAME (100 μM), a K^+ channel blocker Tetraethylammonium (TEA, 10 mM), a KATP channel blocker glibenclamide (1 μM), a voltage-dependent K^+ channel blocker 4-AP (100 μM) and Ca^2+-dpendent K^+ channel blockers apamin (1 μM) and charybdotoxin (0.1 μM) for 30 min prior to the addition of KMUP-1. To observe whether the rabbits corpus cavernosum smooth muscle relaxation of KMUP-1 are affected by a nonselective PDE (phosphodiesterase) inhibitor, we investigated the action of KMUP-1 in the presence of IBMX (0.5 μM). In another experiment, rabbit corpus cavernosum smooth muscles were preconstricted with 60 mM KCl. The KCl solution was prepared by substituting NaCl with KCl (60 mM) in an equimolar amount.
as §1, with “(kim” for “(kim N.”, “al.,” for “al., J. Clin. Invest., 88, 112–118,”, “vol.^−1)” for “vol.^−)”, “integrity. […]” for “integrity.”

[2] = tested on: PDE (phosphodiesterase) in human platelets; test: Phosphodiesterase assay, soluble PDE from human platelets, cyclic GMP substrate; type: biochemical; settings: at 100 μM, n=3
Experimental: Phosphodiesterase assay. Human platelets were isolated from whole blood using 50 mM Tris-HCl containg 5 mM MgCl2 (pH 7.5) and centrifuged to prepare platelet rich plasma. Washed human platelets were resuspended in 50 mM Tris-HCl containg 5 mM MgCl2 (pH 7.5). Platelets were then disrupted by sonicatio, and soluble PDE preparation was obtained by ultracentrifugation 105000 g for 60 min (4° C). […] After 20 min at 37° C., the samples were heated to 100° C. for 2 min. Ophiophagus Hannah snake venom (10 mg/ml, 10 μl) was then added and incubated at 37 C. for 10 min to convert the 5-GMP to the unchanged nucleosides, guanosine. An ion-exchange resin (200 μl) was added to bind all uncoverted cyclic GMP. After centrifuging, the supernatant was removed for determination in a liquid scintillation counter.

[3] = Learning and memory behavioral tasks (Morris water maze, passive inhibitory and active avoidance, rotorod); type: in vivo
Text: Long-term potentiation (LTP) is a potential cellular mechanism underlying learning and memory. Nitric oxide (NO) acts as a retrograde messenger and its downstream effectors are also involved in the modulation of synaptic plasticity in various brain regions such as hippocampus, amygdala, cerebellum, brain stem, cortex etc. Although nitric oxide (NO) is thought to affect synaptic potentiation in various brain regions, the NO-cGMP-PKG pathway involved in memory acquisition in living animals is still unclear. […]. The stimulating parameter which induced long-lasting depression was shifted to a lower frequency by theophylline-based derivative. Furthermore, simultaneous perfusion of theophylline-based derivatives with different concentration of NO donor induced LTP or LTD when the hippocampal slices were stimulated at a frequency as low as 0.02 Hz. The effects of theophylline-based derivative on the behavioral tasks in the following anomal models were examined: Morris water maze, passive inhibitory and active avoidance tests, and rotorod test. […] KMUP-1 injected (1 mg/kg,i.p.) 10 min before the training shortened the escape latency in water maze, increased the retention scores in passive inhibitory avoidance task, decreased the retention time in active avoidance test, and enhanced the motor coorfination in the examination of rotorod. […] YC-1 thus enhanced LTP, learning and memory in an NO-cGMP-PKG-dependent pathway and is a promising drug to enhance learning and memory in human being.

[4] = tested on: intracavernous pressure of rabbits; settings: for DT, duration of tumescence / ΔICP, peak increased intracavernous pressure: n=8
Experimental: Measurement of intracavernous pressure Male rabbits were used for the investigation. After sedation with an intramuscular injection of ketamine (10 mg kg^−1), the rabbits were anaesthetized with intraperitoneal pentobarbital (30 mg kg^−1) and maintained with 10 mg kg^−1 if needed. The animals breathed spontaneously. The rabbits were then placed in the supine position, and the body temperature was maintained at 37° C. The femoral artery was cannulated for continuous monitoring of systemic arterial pressure (SAP) and heart rate (HR) via a pressure transducer (Spectramed, Model P10EZ, U.S.A.). Under sterile conditions, the skin overlying the penis was incised and the corpora cavernosum was exposed at the root of the penis. A 25-gunge needle was inserted into the corpus cavernosum smooth muscles for pressure recording. The needle was connected to a three-way stopcock, thus permitting the intracavernous injection of the drugs. The tube was filled with heparinized saline (50 IU 2 h^−1) to prevent clotting.
Normal saline in increasing volumes (0.05, 0.1, 0.2 ml) was injected in four rabbits as a control group. […] In order to minimize the effect of the previous drug, the cavernous body was flushed with 0.2 ml normal saline before each injection and the time interval between each injection was at least 1.5 h.
Measurement of intracavernous pressure Male rabbits were used for the investigation. After sedation with an intramuscular injection of ketamine (10 mg kg^−1), the rabbits were anaesthetized with intraperitoneal pentobarbital (30 mg kg^−1) and maintained with 10 mg kg^−1 if needed. The animals breathed spontaneously. The rabbits were then placed in the supine position, and the body temperature was maintained at 37° C. The femoral artery was cannulated for continuous monitoring of systemic arterial pressure (SAP) and heart rate (HR) via a pressure transducer (Spectramed, Model P10EZ, U.S.A.). Under sterile conditions, the skin overlying the penis was incised and the corpora cavernosum was exposed at the root of the penis. A 25-gunge needle was inserted into the CCSMs for pressure recording. The needle was connected to a three-way stopcock, thus permitting the intracavernous injection of the drugs. The tube was filled with heparinized saline (50 IU 2 h^−1) to prevent clotting.

[5] = 1 mg/kg i.p. 10 min before the training
[6] = 0.2 mg/kg intracavernous injection
[7] = 0.4 mg/kg intracavernous injection
[8] = 0.6 mg/kg intracavernous injection

With `Cn1c(=O)c2c(ncn2CCN2CCN(c3ccccc3Cl)CC2)n(C)c1=O` [KMUP-1, 7-[2-[4-(2-chlorophenyl)piperazinyl]-ethyl]-1,3-dimethylxanthine] the “relaxant activities in rabbit CCSMs” value [1] was “concentration-dependent relaxant activities”, the “relaxation in endothelium-denuded (EC−) corpus cavernosum smooth muscle” value ([1]; 0.001–10 μM, endothelium-denuded) was “concentration-dependent relaxations” and the “−log EC50 of relaxation” value ([1]; after K+ channel blocker TEA (10 mM)) was 5.37±0.05. The “−log EC50 of relaxation” value ([1]; after KATP channel blocker glibenclamide (1 μM)) was 6.57±0.15, the “−log EC50 of relaxation” value ([1]; after NOS inhibitor L-NAME (100 μM)) was 6.51±0.08 and the “−log EC50 of relaxation” value ([1]; after apamin (1 μM)) was 5.85±0.11. For the same compound, the “−log EC50 of relaxation” value ([1]; after charybdotoxin (0.1 μM)) was 5.63±0.09, the “−log EC50 of relaxation” value ([1]; after sGC inhibitor ODQ (1 μM)) was 6.79±0.12 and the “−log EC50 of relaxation” value ([1]; after voltage-dependent K+ channel blocker 4-AP (100 μM)) was 5.83±0.17. The “relaxation of corpus cavernosum smooth muscle strips” value ([1]; at 10 μM) was “completely relaxed”, the “effect of combination with IBMX on CCSMs relaxations” value ([1]; combination with IBMX) was “additive effect” and the “−log EC50 of relaxation” value ([1]; endothelium-intact (EC+), phenylephrine (10 μM)-precontracted, no blocker) was 7.19±0.09. For the same compound, the “relaxation in the presence of high K+” value ([1]; high K+ (60 mM), 0.001–10 μM) was “great reduction of relaxation”, the “−log EC50 of relaxation” value ([1]; in the presence of IBMX (0.5 μM)) was 8.65±0.14 and the “inhibition of PDE activity” value [2] was 29±3.1%. The “escape latency in water maze” value [3, 5] was “shortened”, the “motor coordination in rotorod” value [3, 5] was “enhanced” and the “retention scores in passive inhibitory avoidance task” value [3, 5] was “increased”. For the same compound, the “retention time in active avoidance test” value [3, 5] was “decreased”, the “retention of passive inhibitory avoidance” value ([3]; given 30 min after foot-shock) was “did not affect” and the “DT, duration of tumescence” value [4, 6] was 15 ± 2.24 min. The “ΔICP, peak increased intracavernous pressure” value [4, 6] was 30 ± 5.25 mmHg, the “DT, duration of tumescence” value [4, 7] was 27 ± 2.05 min and the “ΔICP, peak increased intracavernous pressure” value [4, 7] was 55 ± 6.21 mmHg. For the same compound, the “DT, duration of tumescence” value [4, 8] was 35 ± 3.45 min, the “ΔICP, peak increased intracavernous pressure” value [4, 8] was 67 ± 12.32 mmHg and the “intracavernous pressure, dose dependence” value ([4]; 0.2, 0.4, 0.6 mg kg−1 intracavernous) was “dose-dependent elevations”. The “HR (heart rate)” value ([4]; rabbit, in vivo) was “unchanged” and the “SAP (systemic arterial pressure)” value ([4]; rabbit, in vivo) was “unchanged”.
